The values that follow come from PMC8272136, “Discovery of New Pyrazolopyridine, Furopyridine, and Pyridine Derivatives as CDK2 Inhibitors: Design, Synthesis, Docking Studies, and Anti-Proliferative Activity” (Molecules, 2021).

“And” between values parts separate entries of the source, which are not always exact repeats. Identical values can stand only once. Like-named read-outs stand apart in the source and are kept apart here.

The target of series [1] is T1, CDK2/cyclin A2 protein kinase (Homo sapiens, UniProt P24941). Put plainly: CDK2/cyclin A2 kinase assay (Promega Kinase-Glo Plus luminescence kit). Type of series: biochemical. The text has this: It measures kinase activity by quantitating the amount of ATP remaining in solution following a kinase reaction. The luminescent signal from the assay is correlated with the amount of ATP present and is inversely correlated with the amount of kinase activity. […] The computer software Graphpad Prism was used for analyzing the luminescence data. The difference between luminescence intensities in the absence of CDK2/cyclin A2 protein kinase (Lut) and in the presence of kinase (Luc) was defined as 100% activity (Lut − Luc). Using luminescence signal (Lu) in the presence of the compound, the percentage of activity was calculated as: % activity = {(Lut − Lu)/(Lut − Luc)} × 100%, where Lu = the luminescence intensity in the presence of the compound.

Series [2] relates to HCT-116 (human colorectal carcinoma) cells. The series is described as follows: MTT cytotoxicity assay, HCT-116. Type of series: cell-based. The conditions noted are these: 48 h, read-out: IC50 (µM) ± SD HCT-116. The procedure:
(§1) In this study, ten compounds were examined in vitro for their activities against HCT-116, MCF-7, HepG2, and A549 human cancer cells using the MTT assay. The percentages of intact cells were calculated and compared to those of the control. The activities of these compounds against the four cell lines were compared to the activity of doxorubicin as well. […] In order to study the efficacy of the synthesized compounds, a comparison of the cytotoxic effect of each compound has been related to the cytotoxicity of the reference drug as follows.
(§2) Cell cultures of HCT-116 (human colorectal carcinoma), MCF-7 (human breast adenocarcinoma), HepG2 (human hepatocellular carcinoma), and A549 (human lung carcinoma) cell lines were purchased from the American Type Culture Collection (Rockville, MD, USA) and maintained in DMEM medium that was supplemented with 10% heat-inactivated FBS (fetal bovine serum), 100 U/mL penicillin, and […] streptomycin. The cells were grown at 37 °C in a humidified atmosphere of 5% CO2.
(§3) The anticancer activity against HCT-116, HepG2, A549, and MCF-7 human cancer cell lines was estimated using the 3-[4,5-dimethyl-2-thiazolyl)-2,5-diphenyl-2H-tetrazolium bromide (MTT) assay, which is based on the reduction of the tetrazolium salt by mitochondrial dehydrogenases in viable cells. Cells were dispensed in a 96-well sterile microplate (5 × 10^4 cells/well) and incubated at 37 °C with a series of different concentrations, in DMSO, of each tested compound or doxorubicin (positive control) for 48 h in a serum-free medium prior to the MTT assay. After incubation, media were carefully removed, and 40 µL of MTT (2.5 mg/mL) were added to each well and then incubated for an additional 4 h. The purple formazan dye crystals were solubilized by the addition of 200 µL of DMSO. The absorbance was measured at 570 nm using a Spectra Max Paradigm Multi-Mode microplate reader. The relative cell viability was expressed as the mean percentage of viable cells compared to the untreated control cells. All experiments were conducted in triplicate and repeated on three different days. All the values were represented as mean ± SD. IC50s were determined by probit analysis by SPSS Incprobit analysis (IBM Corp., Armonk, NY, USA).

In series [3] the test system is MCF-7 (human breast adenocarcinoma) cells. Put plainly: MTT cytotoxicity assay, MCF-7. It counts as cell-based. The conditions noted are these: MCF7, 48 h, read-out: IC50 (µM) ± SD MCF-7. The procedure:
as §1, §2, §3
For orientation: Tetrazolium assays rely on reduction of a dye to a coloured formazan, in cell work by metabolically active cells.

In series [4] the test system is HepG2 (human hepatocellular carcinoma) cells. Put plainly: MTT cytotoxicity assay, HepG2. The conditions noted are these: 48 h, read-out: IC50 (µM) ± SD HepG2. It counts as cell-based. The procedure: as §1, §2, §3
The subject of series [5] is A549 (human lung carcinoma) cells. The series is described as follows: MTT cytotoxicity assay, A549. The conditions noted are these: 48 h, read-out: IC50 (µM) ± SD A549. It counts as cell-based. The procedure:
as §1, §2, §3

For series [6], the target named is T1, CDK2/cyclin A2 protein kinase. Set-up: method as in PMID 33390512, PMID 22119131. As to conditions: external test set of QSAR model, reported compounds V, VI; read-out: Experimental Activity (IC50/μM); cited from earlier work.
The mark [7] stands for this setting: CDK2/cyclin A2, Kinase-Glo Plus luminescence, read-out: CDK2 IC50 (µM) ± SD.

For the compound `Nc1n[nH]c2nc(-c3ccc4ccccc4c3)cc(-c3cccs3)c12` [compound 8, 6-(Naphthalen-2-yl)-4-(thiophen-2-yl)-1H-pyrazolo[3,4-b]pyridin-3-amine], the melting point (usually the temperature of the solid-liquid transition) was in the range of 175 to 176 °C. Moreover, the IC50 in series [1] (setting [7]) was 0.65 µM and 0.651 µM. Moreover, the IC50 in series [1] (external test set of QSAR model, compound 8, CDK2, read-out: Experimental Activity (IC50/μM)) was 0.651 µM. The IC50 in series [2] came to 33.7 ± 3.3 µM. For the same compound, the IC50 in series [3] stood at 19.3 ± 2.1 µM. In series [4], the IC50 worked out at 29.1 ± 3.5 µM. In addition, the IC50 in series [5] turned out to be 43.8 ± 4.1 µM.

`CCOC(=O)c1oc2nc(-c3ccc4ccccc4c3)cc(-c3cccs3)c2c1N` [compound 14, Ethyl-3-amino-6-(naphthalen-2-yl)-4-(thiophen-2-yl)furo[2,3-b]pyridine-2-carboxylate]: the melting point was 185 to 186 °C. Besides, the IC50 in series [1] (setting [7]) is 0.93 µM and 0.928 µM. Further, the IC50 in series [2] turned out to be 31.3 ± 3.3 µM. Further, in series [3], the IC50 is 26.1 ± 3.9 µM. Moreover, in series [4], the IC50 turned out to be 27.9 ± 3.5 µM. Besides, the IC50 in series [5] was found to be 56.5 ± 4.8 µM.

As to `CCOC(=O)COc1nc(-c2ccc3ccccc3c2)cc(-c2cccs2)c1C#N` [compound 13], the IC50 was found to be 4.45 ± 0.2 µM in series [1] (setting [7]); 32.4 ± 3.1 µM in series [2]; 37.6 ± 3.5 µM in series [3]; 30.2 ± 3.7 µM in series [4]; 45.9 ± 4.3 µM in series [5].

With `N#Cc1c(-c2cccs2)cc(-c2ccc3ccccc3c2)nc1Nc1ccccc1` [compound 6, 6-(Naphthalen-2-yl)-2-(phenylamino)-4-(thiophen-2-yl)nicotinonitrile], the melting point lay within 130 to 131 °C.

Regarding `N#Cc1c(-c2cccs2)cc(-c2ccc3ccccc3c2)[nH]c1=S` [compound 7], the IC50 amounted to 1.27 ± 0.1 µM in series [1] (setting [7]); 37.8 ± 3.9 µM in series [2]; 27.4 ± 2.4 µM in series [3]; 22.7 ± 2.9 µM in series [4]; 36.8 ± 4.1 µM in series [5].

As for `N#Cc1c(-c2cccs2)cc(-c2ccc3ccccc3c2)nc1Cl` [compound 4, 2-chloro-6-(naphthalen-2-yl)-4-(thiophen-2-yl)nicotinonitrile], the IC50 in series [1] (setting [7]) was 0.24 µM and 0.236 µM; in series [2] it was 45.9 ± 4.1 µM; in series [3], 46.2 ± 4.1 µM; in series [4], 42.9 ± 3.9 µM; in series [5] it was 67.2 ± 5.1 µM.

For `COc1nc(-c2ccc3ccccc3c2)cc(-c2cccs2)c1C#N` [compound 5, 2-Methoxy-6-(naphthalen-2-yl)-4-(thiophen-2-yl)nicotinonitrile], the melting point lay within 125 to 126 °C. The IC50 in series [1] (setting [7]) was 3.53 ± 0.2 µM. Moreover, in series [2], the IC50 worked out at 33.8 ± 3.5 µM. Besides, the IC50 in series [3] is 55.5 ± 4.5 µM. In series [4], the IC50 is 27.2 ± 3.1 µM. In addition, the IC50 in series [5] came out at 47.6 ± 4.5 µM.

Turning to `COc1cccc2c1C(=O)c1c(O)c3c(c(O)c1C2=O)C[C@@](O)(C(=O)CO)C[C@@H]3O[C@H]1C[C@H](N)[C@H](O)[C@H](C)O1` [Doxorubicin, reference compound], the IC50 in series [2] stood at 40 ± 3.9 µM.

With `N#Cc1c(-c2cccs2)cc(-c2ccc3ccccc3c2)nc1SC(=O)CCl` [compound 11, S-(3-Cyano-6-(naphthalen-2-yl)-4-(thiophen-2-yl)pyridin-2-yl)2-chloroethanethioate], the melting point lay within 160 to 161 °C. Moreover, the IC50 in series [1] (setting [7]) is 0.5 µM and 0.504 µM. In addition, the IC50 in series [2] is 31.7 ± 3.5 µM. Also, the IC50 in series [3] is 46.4 ± 4.3 µM. Further, the IC50 in series [4] is 27.6 ± 3.3 µM. The IC50 in series [5] amounted to 56.9 ± 4.6 µM.

In the case of `O=c1[nH]cnc2c1oc1nc(-c3ccc4ccccc4c3)cc(-c3cccs3)c12` [compound 15, 7-(Naphthalen-2-yl)-9-(thiophen-2-yl)pyrido[3′,2′:4,5]furo[3,2-d]pyrimidin-4(3H)-one], the melting point lay in the range of 197 to 198 °C.

Take `N#Cc1c(-c2cccs2)cc(-c2ccc3ccccc3c2)[nH]c1=O` [compound 1, 6-(naphthalen-2-yl)-2-oxo-4-(thiophen-2-yl)-1,2-dihydropyridine-3-carbonitrile]: the IC50 turned out to be 0.57 ± 0.1 µM in series [1] (setting [7]); 39.1 ± 4.2 µM in series [2]; 47 ± 4.5 µM in series [3]; 27.9 ± 3.1 µM in series [4]; 60.6 ± 4.8 µM in series [5].

The compound `N#Cc1c(-c2cccs2)cc(-c2ccc3ccccc3c2)nc1OC1=NC(=S)NC1` [compound 3, 6-(Naphthalen-2-yl)-4-(thiophen-2-yl)-2-((2-thioxo-2,5-dihydro-1H-imidazol-4-yl)oxy)nicotinonitrile] had a melting point of 172 to 173 °C. Further, in series [1] (setting [7]), the IC50 was found to be 1.01 ± 0.1 µM. Besides, in series [2], the IC50 was 49 ± 5.1 µM. For the same compound, in series [3], the IC50 turned out to be 37.3 ± 4.1 µM. The IC50 in series [4] was found to be 44.8 ± 4.1 µM. The IC50 in series [5] came out at 57.4 ± 4.5 µM.

Regarding `Oc1nc(-c2cccs2)c2sc(=S)[nH]c2n1` [V], the IC50 in series [6] is 0.743 µM.

In turn, `N#Cc1c(-c2cccs2)cc(-c2ccc3ccccc3c2)nc1OC(=O)CCl` [compound 2, 3-Cyano-6-(naphthalen-2-yl)-4-(thiophen-2-yl)pyridin-2-yl 2-chloroacetate] registered a melting point of 165 to 166 °C. For the same compound, the IC50 in series [1] (setting [7]) was 1.79 ± 0.1 µM. The IC50 in series [2] came to 43.5 ± 4.5 µM. Moreover, the IC50 in series [3] worked out at 21.3 ± 3.1 µM. Moreover, the IC50 in series [4] stood at 29.4 ± 3.5 µM. Further, the IC50 in series [5] was 70.7 ± 4.1 µM.

With `N#Cc1c(N)nc2[nH]c(=S)sc2c1-c1cccs1` [VI], the IC50 in series [6] was 0.139 µM.
